21 compounds from ChEMBL document CHEMBL5113550, “Optimization of Pyrimidine Compounds as Potent JAK1 Inhibitors and the Discovery of R507 as a Clinical Candidate” (ACS Med Chem Lett, 2022) can be followed below.

In series [1] the target is JAK3/JAK1 (Homo sapiens, UniProt P23458+P52333). In words: Inhibition of JAK1/JAK3 in human primary T-cells assessed as reduction of IL-2 stimulated STAT5 phosphorylation preincubated for 1 hr followed by IL-2 stimulation for 15 mins by FACS method. It is filed as cell-based, T-cell.
A short description of series [2]: Inhibition of IL-2 stimulated IFN-gamma production in BALB/c mouse at 40 mg/kg, po pretreated for 30 mins followed by IL-2 stimulation and measured after 4 hrs by ELISA. It is filed as functional. The settings on record: time 4.5 hrs. (ELISA stands for enzyme-linked immunosorbent assay.)
For series [3], the target named is Tyrosine-protein kinase JAK2 (Homo sapiens, UniProt O60674). Description: Inhibition of JAK2 signaling pathway in human CHEP cells assessed as inhibition of EPO-induced cell survival preincubated for 1 hr followed by EPO addition and measured after 48 hrs by CellTiter-Glo luminescent assay. The class given is toxicity, cell-based.
For series [4], the species on record is Homo sapiens. Description: Selectivity ratio of IC50 for inhibition of JAK2 signaling pathway in EPO-stimulated human CHEP cells to IC50 for inhibition of JAK1/JAK3 in human primary T-cells assessed as reduction of IL-2 stimulated STAT5 phosphorylation.
The target in series [5] is T1, Cytochrome P450 3A4 (Homo sapiens, UniProt P08684). Description: Inhibition of CYP3A4 (unknown origin) in absence of NADPH. The class given is ADME.
Series [6] concerns the target T1, Cytochrome P450 3A4. Description: Inhibition of CYP3A4 (unknown origin) in presence of NADPH. It is filed as ADME.
Series [7] can be described thus: Plasma protein binding in rat. It is filed as ADME, cell-free. Particulars: read-out: PPB (converted).
Series [8] in a line: Plasma protein binding in human. It is filed as ADME, cell-free. Particulars: read-out: PPB (converted).
The nature of series [9]: Inhibition of IL-2 stimulated IFN-gamma production in BALB/c mouse at 5 mg/kg, po pretreated for 30 mins followed by IL-2 stimulation and measured after 4 hrs by ELISA. Particulars: time 4.5 hrs. It is filed as functional.
Series [10] in a line: Oral bioavailability in Sprague-Dawley rat 5 mg/kg. It is filed as ADME, organism-based. Particulars: in vivo.
Series [11] concerns the target T2, Tyrosine-protein kinase SYK (Homo sapiens, UniProt P43405). In words: Inhibition of SYK (unknown origin) assessed as reduction of IgM-stimulated ERK phosphorylation by Cell-based assay.
Series [12] is described as follows: AUC in Sprague-Dawley rat 5 mg/kg, po. It is filed as ADME, organism-based. Also on record: dose 5 mg/kg, route po. The settings on record: in vivo.
The test system of series [13] is Rattus norvegicus. Description: Antiarthritic activity against collagen-induced arthritis Lewis rat model assessed as reduction in disease severity by measuring inhibition of hind limb clinical score at 50 mg/kg, po bid measured upto 20 days. It is filed as functional. Particulars: 480 h, time <= 20 day.
Series [14] relates to Rattus norvegicus. In words: Antiarthritic activity against collagen-induced arthritis Lewis rat model assessed as reduction in disease severity by measuring inhibition of hind limb clinical score at 100 mg/kg, po qd measured upto 20 days. It is filed as functional. Particulars: 480 h, time <= 20 day.
Series [15] concerns Rattus norvegicus. In words: Antiarthritic activity against collagen-induced arthritis Lewis rat model assessed as reduction in disease severity by measuring inhibition of hind limb clinical score at 25 mg/kg, po bid measured upto 20 days. The class given is functional. Particulars: 480 h, time <= 20 day.
Series [16] concerns the target T3, Cytochrome P450 1A2 (Homo sapiens, UniProt P05177).
T3 sequence (P05177 whole entry): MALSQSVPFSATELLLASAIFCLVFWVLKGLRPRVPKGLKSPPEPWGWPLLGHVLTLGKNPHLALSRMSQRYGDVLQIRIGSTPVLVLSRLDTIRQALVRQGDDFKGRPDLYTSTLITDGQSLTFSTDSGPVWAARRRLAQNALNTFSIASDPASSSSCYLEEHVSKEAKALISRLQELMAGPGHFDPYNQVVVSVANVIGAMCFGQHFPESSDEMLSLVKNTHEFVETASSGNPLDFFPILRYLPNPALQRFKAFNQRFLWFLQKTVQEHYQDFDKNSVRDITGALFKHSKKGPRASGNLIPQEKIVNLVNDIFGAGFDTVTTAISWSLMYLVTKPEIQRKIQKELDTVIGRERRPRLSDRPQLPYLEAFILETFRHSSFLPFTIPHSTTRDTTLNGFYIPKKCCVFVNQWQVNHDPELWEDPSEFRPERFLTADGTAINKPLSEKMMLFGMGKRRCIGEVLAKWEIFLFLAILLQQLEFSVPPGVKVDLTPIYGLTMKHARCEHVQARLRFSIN
In words: Inhibition of CYP1A2 (unknown origin). It is filed as ADME.

For series [17], the target named is T2, Tyrosine-protein kinase SYK. Description: Inhibition of human full length recombinant N-terminal GST-tagged SYK expressed in baculovirus expression system at 250 nM by Z'-lyte assay.

A value given as a limit tells only on which side of the number the result lay.

Sequence of JAK3/JAK1 (P52333 whole entry): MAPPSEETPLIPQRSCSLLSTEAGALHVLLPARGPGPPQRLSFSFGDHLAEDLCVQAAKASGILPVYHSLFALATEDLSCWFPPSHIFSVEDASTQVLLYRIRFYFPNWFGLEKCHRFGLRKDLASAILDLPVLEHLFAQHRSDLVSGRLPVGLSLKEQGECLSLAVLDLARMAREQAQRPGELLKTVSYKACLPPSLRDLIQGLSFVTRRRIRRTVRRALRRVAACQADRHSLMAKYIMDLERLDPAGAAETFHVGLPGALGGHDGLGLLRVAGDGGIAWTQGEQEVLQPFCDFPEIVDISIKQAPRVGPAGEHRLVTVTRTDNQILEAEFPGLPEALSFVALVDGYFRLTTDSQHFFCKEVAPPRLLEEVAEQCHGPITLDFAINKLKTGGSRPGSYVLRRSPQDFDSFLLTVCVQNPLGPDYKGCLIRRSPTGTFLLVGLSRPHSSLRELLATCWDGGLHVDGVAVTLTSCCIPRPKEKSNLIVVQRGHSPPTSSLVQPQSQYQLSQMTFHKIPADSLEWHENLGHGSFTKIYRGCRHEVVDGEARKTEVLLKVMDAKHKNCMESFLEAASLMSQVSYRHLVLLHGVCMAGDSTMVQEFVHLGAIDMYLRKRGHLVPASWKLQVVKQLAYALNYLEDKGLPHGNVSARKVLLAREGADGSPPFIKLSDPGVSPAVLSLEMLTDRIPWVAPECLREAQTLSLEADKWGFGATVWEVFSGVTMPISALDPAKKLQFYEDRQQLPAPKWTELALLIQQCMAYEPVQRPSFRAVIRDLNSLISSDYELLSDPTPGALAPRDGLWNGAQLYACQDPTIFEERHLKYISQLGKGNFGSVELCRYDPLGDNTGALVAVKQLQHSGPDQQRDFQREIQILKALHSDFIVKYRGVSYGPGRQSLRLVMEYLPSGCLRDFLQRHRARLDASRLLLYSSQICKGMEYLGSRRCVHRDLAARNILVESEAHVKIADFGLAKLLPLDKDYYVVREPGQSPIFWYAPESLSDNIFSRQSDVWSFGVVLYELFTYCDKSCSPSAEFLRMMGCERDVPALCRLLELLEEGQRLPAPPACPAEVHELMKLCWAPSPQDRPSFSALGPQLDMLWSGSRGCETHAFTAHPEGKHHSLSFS
Sequence of JAK3/JAK1 (P23458 whole entry): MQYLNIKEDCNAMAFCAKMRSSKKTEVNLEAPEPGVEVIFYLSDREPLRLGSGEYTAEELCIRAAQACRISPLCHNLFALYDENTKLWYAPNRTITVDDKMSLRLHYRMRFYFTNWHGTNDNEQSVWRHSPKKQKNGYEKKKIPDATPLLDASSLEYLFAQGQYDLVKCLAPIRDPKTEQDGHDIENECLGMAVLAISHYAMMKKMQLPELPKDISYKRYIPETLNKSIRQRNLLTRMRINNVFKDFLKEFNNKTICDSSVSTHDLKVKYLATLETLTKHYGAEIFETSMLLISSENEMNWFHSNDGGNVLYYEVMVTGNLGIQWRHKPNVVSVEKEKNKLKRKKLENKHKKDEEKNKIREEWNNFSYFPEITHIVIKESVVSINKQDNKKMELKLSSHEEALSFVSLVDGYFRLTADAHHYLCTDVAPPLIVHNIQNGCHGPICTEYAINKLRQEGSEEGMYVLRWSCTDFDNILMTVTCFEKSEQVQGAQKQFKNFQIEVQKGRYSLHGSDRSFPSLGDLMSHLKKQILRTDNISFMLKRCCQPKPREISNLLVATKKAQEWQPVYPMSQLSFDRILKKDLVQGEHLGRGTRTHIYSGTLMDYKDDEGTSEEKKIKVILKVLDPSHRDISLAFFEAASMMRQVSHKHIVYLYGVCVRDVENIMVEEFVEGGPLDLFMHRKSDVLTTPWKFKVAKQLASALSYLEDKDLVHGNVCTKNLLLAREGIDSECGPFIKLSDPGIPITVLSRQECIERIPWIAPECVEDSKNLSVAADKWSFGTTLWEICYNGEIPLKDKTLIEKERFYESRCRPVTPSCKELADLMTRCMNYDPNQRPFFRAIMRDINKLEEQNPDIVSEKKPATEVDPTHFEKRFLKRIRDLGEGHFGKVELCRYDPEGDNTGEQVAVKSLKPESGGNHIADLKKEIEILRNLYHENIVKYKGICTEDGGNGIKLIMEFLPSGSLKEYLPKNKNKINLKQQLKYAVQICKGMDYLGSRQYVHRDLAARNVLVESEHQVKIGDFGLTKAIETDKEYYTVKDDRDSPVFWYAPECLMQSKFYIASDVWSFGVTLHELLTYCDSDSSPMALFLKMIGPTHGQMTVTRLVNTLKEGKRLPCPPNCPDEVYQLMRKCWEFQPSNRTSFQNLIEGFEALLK
T1 sequence (P08684 whole entry): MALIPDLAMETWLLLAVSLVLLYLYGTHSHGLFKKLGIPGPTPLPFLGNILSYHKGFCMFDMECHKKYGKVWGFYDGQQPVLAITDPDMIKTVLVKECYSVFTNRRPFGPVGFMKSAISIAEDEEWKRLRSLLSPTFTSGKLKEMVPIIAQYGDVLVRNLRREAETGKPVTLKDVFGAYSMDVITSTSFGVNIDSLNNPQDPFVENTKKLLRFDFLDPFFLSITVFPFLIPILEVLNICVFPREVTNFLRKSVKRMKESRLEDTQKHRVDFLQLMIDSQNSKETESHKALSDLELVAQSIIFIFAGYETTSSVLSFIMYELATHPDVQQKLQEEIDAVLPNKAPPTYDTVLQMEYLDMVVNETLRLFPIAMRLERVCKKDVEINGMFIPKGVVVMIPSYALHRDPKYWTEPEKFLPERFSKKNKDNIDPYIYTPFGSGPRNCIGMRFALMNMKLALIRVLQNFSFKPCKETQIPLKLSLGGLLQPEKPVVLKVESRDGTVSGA
Sequence of Tyrosine-protein kinase JAK2 (O60674 whole entry): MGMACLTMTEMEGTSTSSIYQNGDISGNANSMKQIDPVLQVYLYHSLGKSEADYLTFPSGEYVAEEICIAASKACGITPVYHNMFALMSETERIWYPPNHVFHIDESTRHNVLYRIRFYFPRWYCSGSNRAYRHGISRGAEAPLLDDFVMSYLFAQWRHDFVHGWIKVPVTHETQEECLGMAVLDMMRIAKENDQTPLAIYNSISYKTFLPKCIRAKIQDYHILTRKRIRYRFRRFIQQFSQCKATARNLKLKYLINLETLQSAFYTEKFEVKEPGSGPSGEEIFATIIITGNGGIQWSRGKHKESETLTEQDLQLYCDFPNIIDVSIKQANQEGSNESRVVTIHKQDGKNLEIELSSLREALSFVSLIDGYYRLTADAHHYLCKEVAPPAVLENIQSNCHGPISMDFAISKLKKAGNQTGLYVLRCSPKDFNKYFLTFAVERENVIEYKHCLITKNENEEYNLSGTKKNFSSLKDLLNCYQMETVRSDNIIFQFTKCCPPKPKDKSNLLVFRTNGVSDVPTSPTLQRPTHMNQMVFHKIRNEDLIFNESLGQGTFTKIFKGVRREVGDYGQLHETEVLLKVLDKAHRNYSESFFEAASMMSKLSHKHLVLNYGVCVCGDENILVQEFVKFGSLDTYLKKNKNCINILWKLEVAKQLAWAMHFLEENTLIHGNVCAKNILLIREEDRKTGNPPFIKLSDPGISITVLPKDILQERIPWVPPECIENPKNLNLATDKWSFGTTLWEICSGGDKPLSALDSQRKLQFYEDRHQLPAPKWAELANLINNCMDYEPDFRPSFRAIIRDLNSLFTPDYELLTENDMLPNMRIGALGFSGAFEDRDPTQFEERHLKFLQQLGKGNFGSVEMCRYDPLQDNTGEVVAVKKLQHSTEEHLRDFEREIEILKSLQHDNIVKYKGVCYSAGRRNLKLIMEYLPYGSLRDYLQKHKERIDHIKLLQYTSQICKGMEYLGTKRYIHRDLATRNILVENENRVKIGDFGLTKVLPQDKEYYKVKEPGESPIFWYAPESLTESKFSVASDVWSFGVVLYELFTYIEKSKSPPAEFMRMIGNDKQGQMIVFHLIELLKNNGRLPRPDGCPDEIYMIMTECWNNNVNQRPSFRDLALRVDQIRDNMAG

On to `COc1cc(Nc2ncc(C)c(Nc3ccc4oc(=O)[nH]c4c3)n2)cc(OC)c1OC`, for which the half-inhibitory concentration (IC50) (commonly the concentration at which inhibition is half-maximal) was 0.026 µM in series [1], 0.081 µM in series [3], > 10 µM in series [5] and 1.1 µM in [6]. Also, the inhibition in vivo – broadly, the relative decrease from the control value, in per cent – at 40 mg/kg in series [2] was determined as 88%. For the same compound, the Ratio IC50 in [4] is 3.
As for `Cc1cnc(Nc2ccc(N3CCN(C)CC3)nc2)nc1Nc1ccc2oc(=O)[nH]c2c1`, the IC50 in [1] is 0.02 µM; in series [3], 0.084 µM; in series [5] it was > 10 µM; in series [6], 4 µM. Further, the figures for the fraction unbound in series [7] and in series [8] were 0.16 and 0.19, respectively. Moreover, the inhibition in vivo at 40 mg/kg in [2] was 82%. Also, the Ratio IC50 in series [4] worked out at 4. The inhibition in vivo at 5 mg/kg in series [9] came to 30%. Also, the bioavailability (in general, dose-corrected exposure relative to a reference, in per cent) in series [10] came out at 4%.
Regarding `Cc1cnc(Nc2ccc(N3CCOCC3)nc2)nc1Nc1ccc2oc(=O)[nH]c2c1`, the IC50 in series [1] is 0.022 µM. Further, the inhibition in vivo at 40 mg/kg in [2] stood at 36%. The bioavailability in series [10] is < 1%.
On to `Cc1cnc(Nc2cccc(S(N)(=O)=O)c2)nc1Nc1ccc2c(c1)NC(=O)CO2`, for which the IC50 in series [11] came to 0.7 µM.
Regarding `Cc1cnc(Nc2ccc(F)c(C(F)(F)F)c2)nc1Nc1ccc2oc(=O)[nH]c2c1`, the IC50 in series [3] was 0.503 µM; in series [5], > 10 µM; in series [6], 0.7 µM.
Take `Cc1cnc(Nc2cccc(NS(C)(=O)=O)c2)nc1Nc1ccc2oc(=O)[nH]c2c1`: the inhibition in vivo at 40 mg/kg in series [2] is 15%.
`COc1cc(C)cc(Nc2ncc(C)c(Nc3ccc4oc(=O)[nH]c4c3)n2)c1`: in [2], the inhibition in vivo at 40 mg/kg came out at 91%. The IC50 is 0.354 µM in series [3], > 10 µM in series [5] and > 10 µM in [6]. Also, the inhibition in vivo at 5 mg/kg in series [9] turned out to be 55%.
For the compound `COc1cc(Nc2ncc(C)c(Nc3ccc4oc(=O)[nH]c4c3)n2)cc(OC)c1`, the IC50 in series [3] amounted to 0.132 µM.
Take `COc1cc(Nc2ncc(C)c(Nc3ccc4oc(=O)[nH]c4c3)n2)cc(C(F)(F)F)c1`: in series [2], the inhibition in vivo at 40 mg/kg turned out to be 90%. The IC50 came out at 1.69 µM in [3], 7.2 µM in series [5] and 0.5 µM in series [6]. For the same compound, the inhibition in vivo at 5 mg/kg in series [9] is 78%.
In series [10], `COc1cc(Nc2ncc(C)c(Nc3ccc4oc(=O)[nH]c4c3)n2)cc(C)c1F.O=S(=O)(O)c1ccccc1` displayed a bioavailability of 37%. For the same compound, the area under the curve (AUC) – broadly, the area under the concentration-time curve, a measure of exposure – in series [12] was 507 ng·h/mL. In [13], the inhibition in vivo at 50 mg/kg was 98%. The inhibition in vivo at 100 mg/kg in series [14] came to 98%. In series [15], the inhibition in vivo at 25 mg/kg stood at 75%.
Take `Cc1cnc(Nc2ccc(NS(C)(=O)=O)cc2)nc1Nc1ccc2oc(=O)[nH]c2c1`: the inhibition in vivo at 40 mg/kg in [2] came to 8%.
On to `COc1cc(Nc2ncc(C)c(Nc3ccc4oc(=O)[nH]c4c3)n2)cc(C(F)F)c1`, for which the inhibition in vivo at 40 mg/kg in series [2] amounted to 92%. For the same compound, the IC50 is 0.173 µM in [3], > 10 µM in [5] and 3 µM in series [6]. Further, in series [9], the inhibition in vivo at 5 mg/kg was found to be 66%.
Take `COc1cc(CF)cc(Nc2ncc(C)c(Nc3ccc4oc(=O)[nH]c4c3)n2)c1`: the figures for the IC50 in series [3], in series [5] and in series [6] were 0.17 µM, > 10 µM and 8 µM, respectively.
On to `Cc1cnc(Nc2cccc(S(N)(=O)=O)c2)nc1Nc1ccc2oc(=O)[nH]c2c1`, for which the IC50 in series [11] was 5 µM. Besides, in series [2], the inhibition in vivo at 40 mg/kg amounted to 30%.
For the compound `COc1cc(Nc2ncc(C)c(Nc3ccc4oc(=O)[nH]c4c3)n2)cc(C)c1C`, in [2], the inhibition in vivo at 40 mg/kg was 90%. Besides, the IC50 is 1.11 µM in [3], > 10 µM in series [5] and 2.9 µM in series [6]. For the same compound, in series [9], the inhibition in vivo at 5 mg/kg was determined as 68%. Moreover, the Ki – broadly, the dissociation constant of the complex between target and ligand, obtained from inhibition or displacement – in series [16] came out at 6 µM.
In the case of `Cc1cnc(Nc2ccc(C#N)cc2)nc1Nc1ccc2oc(=O)[nH]c2c1`, the inhibition in vivo at 40 mg/kg in series [2] worked out at 0%.
In the case of `Cc1cnc(Nc2cccc(C#N)c2)nc1Nc1ccc2oc(=O)[nH]c2c1`, the inhibition in vivo at 40 mg/kg in series [2] amounted to 1%.
On to `COc1cc(Nc2ncc(C)c(Nc3ccc4oc(=O)[nH]c4c3)n2)cc(C)c1F`, for which the Ratio IC50 in series [4] turned out to be 24. Further, in series [17], the inhibition – broadly, the percentage by which the read-out fell short of the control – was < 50%.
Consider `COc1cc(Nc2ncc(C)c(Nc3ccc4oc(=O)[nH]c4c3)n2)cc(C)c1OC`, for which the IC50 is 0.042 µM in [3], > 10 µM in [5] and 2.7 µM in series [6].
For the compound `Cc1cnc(Nc2cccc(S(C)(=O)=O)c2)nc1Nc1ccc2oc(=O)[nH]c2c1`, in [2], the inhibition in vivo at 40 mg/kg worked out at 56%.
Turning to `COc1ccc(Nc2ncc(C)c(Nc3ccc4oc(=O)[nH]c4c3)n2)cc1C(F)(F)F`, the inhibition in vivo at 40 mg/kg in series [2] is 32%. The IC50 in series [3] is 1.98 µM; in series [5], 4.8 µM; in series [6], 0.4 µM.
